# Source: US20220401429A1, “USE OF ANAMORELIN TO TREAT CANCER-RELATED FATIGUE” (Helsinn Healthcare SA, priority 2021, published 2022)
# Assays:
# Assay type in all cases: in vivo, human
# [1] = system: patients with advanced cancer; experiment: Edmonton Symptom Assessment Scale (ESAS), Example 1 study; details: change from baseline, 100 mg oral daily + physical activity + nutritional counseling
# Protocol: (§1) In this single arm study, 38 patients were intended for treatment with anamorelin for 6 weeks with an optional extension phase of 6 more weeks based on tolerability and safety and patient willingness. Patients received anamorelin 100 mg tablets and physical activity for 6 weeks for the intervention phase. Patients took 1 tablet orally while fasting (at least 1 hour before a meal).
# (§2) Secondary objectives of the study were to examine the effects of anamorelin and standardized physical activity and nutritional counseling on Health-related quality of life and patient reported outcomes as measured by The Multidimensional Fatigue Symptom Inventory-Short Form[MFSI-SF], PROMIS-Fatigue, Hospital Anxiety Depression Scale (HADS), Edmonton Symptom Assessment Scale (ESAS), Functional Assessment of Cancer Therapy (FACT-G), and its Functional Assessment of Anorexia/Cachexia Treatment (FAACT) subscale in these patients.
# The ESAS measures 10 common symptoms in the past 24 hours (pain, fatigue, nausea, depression, anxiety, drowsiness, shortness of breath, appetite, sleep, and feeling of well-being); This questionnaire has been found valid and reliable in cancer populations (Bruera, Kuehn et al. 1991).
# IGF-1 = IGF-1 level, Example 1 study; details: Day 43, 28 evaluable patients, 100 mg oral daily + physical activity + nutritional counseling
# Protocol: as §1
# [2] = Weight and body composition (InBody), Example 1 study; details: Day 43, 28 evaluable patients, 100 mg oral daily + physical activity + nutritional counseling
# Protocol: as §1
# Exploratory objectives of the study were to explore the effects of anamorelin and standardized physical activity and nutritional counseling on muscle function (as measured by the 30 second chair stand test, 6 minute walk test, day time activity (accelerometer), body composition (as measured by INBODY), and Resting Energy Expenditure (measured by indirect calorimetry)
# Body Composition: All patients were assessed for lean body mass, skeletal muscle mass, extracellular water/total body water body, fat mass, body fat mass, and whole body phase angle evaluation (using the InBody body composition scale) (Dalal, Hui et al. 2012, Del Fabbro, Parsons et al. 2012, Yennurajalingam, Willey et al. 2012, Hui, Bansal et al. 2014). Resting energy expenditure was assessed at baseline and Day 43±3 days, and at the end of 6 weeks of the extension phase.
# [3] = system: patients with advanced cancer; experiment: Multidimensional Fatigue Symptom Inventory-Short Form (MFSI-SF), Example 1 study; details: change from baseline, 100 mg oral daily + physical activity + nutritional counseling
# Protocol: as §1, §2
# MFSI-SF consists of 30 items designed to assess the multidimensional nature of fatigue(Stein, Jacobsen et al. 2004). Ratings are summed to obtain scores for 5 subscales (general fatigue, physical fatigue, emotional fatigue, mental fatigue, and vigor).
# [4] = system: patients with advanced cancer; experiment: Godin Leisure-Time physical activity questionnaire, Example 1 study; details: Day 86 (N = 8), change from baseline, 100 mg oral daily + physical activity + nutritional counseling
# Protocol: as §1
# Measures: We used the 30 second chair stand test, six-minute walk test, and an accelerometer. A self-report exercise questionnaire, the Godin Leisure-Time physical activity questionnaire, was used to complement the objective measures. IM Systems-three dimensional accelerometers (“Biotrainer-Pro”) was used to objectively measure physical activity.
# Physical Performance Tests: The 30 second chair stand test, 6-minute walk test, and Godin Leisure-Time physical activity questionnaire were administered at baseline and on Day 43. The 30 second sit-to-stand task assessed lower body strength (Rikli and Jones 1999).
# The Godin Leisure-Time physical activity questionnaire asks participants how many times per week on average they participate in strenuous, moderate and mild exercises for more than 15 minutes during their free time. […]
structure (smiles),measurement,setting,value
CN(C)N(C)C(=O)[C@@]1(Cc2ccccc2)CCCN(C(=O)[C@@H](Cc2c[nH]c3ccccc23)NC(=O)C(C)(C)N)C1 [anamorelin],"ESAS Appetite, change, Mean (±SD)",[1]; Day 15 (N = 28),"−0.43 (±3.06),"
same,"ESAS-Fatigue, change, Mean (±SD)",[1]; Day 15 (N = 28),"−0.68 (±2.87),"
same,"ESAS Appetite, change, Mean (±SD)",[1]; Day 29 (N = 28),"−1.04 (±3.19),"
same,"ESAS-Fatigue, change, Mean (±SD)",[1]; Day 29 (N = 28),"−0.75 (±2.70),"
same,"ESAS Appetite, change, Mean (±SD)",[1]; Day 43 (N = 28),"−0.56 (±3.07),"
same,"ESAS-Fatigue, change, Mean (±SD)",[1]; Day 43 (N = 28),"−0.81 (±2.87),"
same,"ESAS Appetite, change, Mean (±SD)",[1]; Day 86 (N = 8),"−0.13 (±3.09),"
same,"ESAS-Fatigue, change, Mean (±SD)",[1]; Day 86 (N = 8),"−1.25 (±2.43),"
same,"IGF-1 change from baseline, mean (SD)",IGF-1,36.50 (±48.76)
same,"Lean Body Mass improvement from baseline, mean (SD)",[2],1.54 (±1.85)
same,"Weight improvement from baseline, mean (SD)",[2],1.81 (±2.63) kg
same,"MFSI-SF Emotional fatigue, change, Mean (±SD)",[3]; Day 15 (N = 28),"−0.43 (±2.20),"
same,"MFSI-SF General fatigue, change, Mean (±SD)",[3]; Day 15 (N = 28),"−2.25 (±4.53),"
same,"MFSI-SF Mental fatigue, change, Mean (±SD)",[3]; Day 15 (N = 28),"−0.93 (±2.57),"
same,"MFSI-SF Physical fatigue, change, Mean (±SD)",[3]; Day 15 (N = 28),"−0.71 (±3.69),"
same,"MFSI-SF Total, change, Mean (±SD)",[3]; Day 15 (N = 28),"−4.79 (±9.59),"
same,"MFSI-SF Vigor, change, Mean (±SD)",[3]; Day 15 (N = 28),"0.46 (±2.89),"
same,"MFSI-SF Emotional fatigue, change, Mean (±SD)",[3]; Day 29 (N = 28),"0.14 (±3.15),"
same,"MFSI-SF General fatigue, change, Mean (±SD)",[3]; Day 29 (N = 28),"−4.18 (±5.74),"
same,"MFSI-SF Mental fatigue, change, Mean (±SD)",[3]; Day 29 (N = 28),"−1.39 (±2.90),"
same,"MFSI-SF Physical fatigue, change, Mean (±SD)",[3]; Day 29 (N = 28),"−0.50 (±4.43),"
same,"MFSI-SF Total, change, Mean (±SD)",[3]; Day 29 (N = 28),"−6.32 (±12.41),"
same,"MFSI-SF Vigor, change, Mean (±SD)",[3]; Day 29 (N = 28),"0.39 (±3.46),"
same,"MFSI-SF Emotional fatigue, change, Mean (±SD)",[3]; Day 43 (N = 28),"1.04 (±4.36),"
same,"MFSI-SF Mental fatigue, change, Mean (±SD)",[3]; Day 43 (N = 28),"−0.36 (±4.12),"
same,"MFSI-SF Physical fatigue, change, Mean (±SD)",[3]; Day 43 (N = 28),"−0.39 (±5.03),"
same,"MFSI-SF Total, change, Mean (±SD)",[3]; Day 43 (N = 28),"−2.07 (±17.59),"
same,"MFSI-SF Vigor, change, Mean (±SD)",[3]; Day 43 (N = 28),"−1.11 (±5.28),"
same,"MFSI-SF Emotional fatigue, change, Mean (±SD)",[3]; Day 86 (N = 8),"−0.88 (±2.42),"
same,"MFSI-SF General fatigue, change, Mean (±SD)",[3]; Day 86 (N = 8),"−4.00 (±6.28),"
same,"MFSI-SF Mental fatigue, change, Mean (±SD)",[3]; Day 86 (N = 8),"−2.25 (±3.62),"
same,"MFSI-SF Physical fatigue, change, Mean (±SD)",[3]; Day 86 (N = 8),"−1.88 (±3.98),"
same,"MFSI-SF Total, change, Mean (±SD)",[3]; Day 86 (N = 8),"−11.75 (±14.22),"
same,"MFSI-SF Vigor, change, Mean (±SD)",[3]; Day 86 (N = 8),"2.75 (±3.01),"
same,"Godin Leisure Test Total, change, Mean (±SD)",[4],"−0.67 (±6.35),"
